Each block holds one compound with its values, some of them ahead of it. Activity calls are given as the source filed them.
Legend:
[1] = intracellular Trypanosoma cruzi inhibitors in host cells – cell-based, plate reader, cherry-pick samples, set 3, dose response (AID 651818); assay type: functional;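 also: compounds incubated with infected cells for about four days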
Paired box protein Pax-8 = Paired box protein Pax-8 (Homo sapiens, UniProt Q06710); test: inhibitors of PAX8-driven TPO luciferase reporter, dose response, RMG-I cells, cherry-pick (AID 687027); assay type: functional, cell-based;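 also: luciferase reporter driven by Pax8 target thyroperoxidase promoter measured by SteadyGlo luminescence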
Sequence of Paired box protein Pax-8 (Q06710 whole entry): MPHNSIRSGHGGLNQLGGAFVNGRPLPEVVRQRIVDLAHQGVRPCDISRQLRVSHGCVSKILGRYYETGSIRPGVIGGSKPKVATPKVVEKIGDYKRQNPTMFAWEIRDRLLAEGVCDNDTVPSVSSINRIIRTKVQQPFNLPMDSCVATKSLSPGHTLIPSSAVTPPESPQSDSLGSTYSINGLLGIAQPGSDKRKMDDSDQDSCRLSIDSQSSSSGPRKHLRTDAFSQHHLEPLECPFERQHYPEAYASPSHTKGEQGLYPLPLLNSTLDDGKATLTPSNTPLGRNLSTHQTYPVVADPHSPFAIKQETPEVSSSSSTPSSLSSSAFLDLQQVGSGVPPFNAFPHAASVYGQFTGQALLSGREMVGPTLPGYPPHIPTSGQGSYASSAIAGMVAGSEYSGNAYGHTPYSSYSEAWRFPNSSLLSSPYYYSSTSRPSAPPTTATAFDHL

[2] = non-specific cell cytotoxicity, dose response, cytotoxicity control for PAX8 inhibitor project, plate reader, dry powder samples (AID 743021); assay type: functional, cell-based
[3] = cytotoxicity in OVCAR8 ovarian cancer cells, dose response, PAX8 project, cell-based, plate reader, dry powder samples (AID 743197); assay type: functional; conditions: OVCAR-8
[4] = NIH:OVCAR-3 ovarian cancer cell cytotoxicity, dose response, PAX8 inhibitor project, plate reader, dry powder samples (AID 743044); assay type: functional, cell-based
Kallikrein-7 = Kallikrein-7 (Homo sapiens, UniProt P49862); test: Fluorescence Intensity-based biochemical primary high throughput dose response assay to identify activators of kallikrein-7 (K7) zymogen.
Sequence of Kallikrein-7 (P49862 whole entry): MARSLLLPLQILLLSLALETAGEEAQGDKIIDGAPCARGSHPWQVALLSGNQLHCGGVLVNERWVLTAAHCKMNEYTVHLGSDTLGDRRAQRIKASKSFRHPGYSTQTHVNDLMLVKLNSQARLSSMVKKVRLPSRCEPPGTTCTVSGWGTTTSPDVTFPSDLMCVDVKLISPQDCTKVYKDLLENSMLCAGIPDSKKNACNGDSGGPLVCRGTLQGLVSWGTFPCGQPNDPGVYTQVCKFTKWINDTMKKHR

[5] = molecular target: T1, Histone-lysine N-methyltransferase NSD2 (Homo sapiens, UniProt O96028); assay type: biochemical
T1 sequence (O96028 whole entry): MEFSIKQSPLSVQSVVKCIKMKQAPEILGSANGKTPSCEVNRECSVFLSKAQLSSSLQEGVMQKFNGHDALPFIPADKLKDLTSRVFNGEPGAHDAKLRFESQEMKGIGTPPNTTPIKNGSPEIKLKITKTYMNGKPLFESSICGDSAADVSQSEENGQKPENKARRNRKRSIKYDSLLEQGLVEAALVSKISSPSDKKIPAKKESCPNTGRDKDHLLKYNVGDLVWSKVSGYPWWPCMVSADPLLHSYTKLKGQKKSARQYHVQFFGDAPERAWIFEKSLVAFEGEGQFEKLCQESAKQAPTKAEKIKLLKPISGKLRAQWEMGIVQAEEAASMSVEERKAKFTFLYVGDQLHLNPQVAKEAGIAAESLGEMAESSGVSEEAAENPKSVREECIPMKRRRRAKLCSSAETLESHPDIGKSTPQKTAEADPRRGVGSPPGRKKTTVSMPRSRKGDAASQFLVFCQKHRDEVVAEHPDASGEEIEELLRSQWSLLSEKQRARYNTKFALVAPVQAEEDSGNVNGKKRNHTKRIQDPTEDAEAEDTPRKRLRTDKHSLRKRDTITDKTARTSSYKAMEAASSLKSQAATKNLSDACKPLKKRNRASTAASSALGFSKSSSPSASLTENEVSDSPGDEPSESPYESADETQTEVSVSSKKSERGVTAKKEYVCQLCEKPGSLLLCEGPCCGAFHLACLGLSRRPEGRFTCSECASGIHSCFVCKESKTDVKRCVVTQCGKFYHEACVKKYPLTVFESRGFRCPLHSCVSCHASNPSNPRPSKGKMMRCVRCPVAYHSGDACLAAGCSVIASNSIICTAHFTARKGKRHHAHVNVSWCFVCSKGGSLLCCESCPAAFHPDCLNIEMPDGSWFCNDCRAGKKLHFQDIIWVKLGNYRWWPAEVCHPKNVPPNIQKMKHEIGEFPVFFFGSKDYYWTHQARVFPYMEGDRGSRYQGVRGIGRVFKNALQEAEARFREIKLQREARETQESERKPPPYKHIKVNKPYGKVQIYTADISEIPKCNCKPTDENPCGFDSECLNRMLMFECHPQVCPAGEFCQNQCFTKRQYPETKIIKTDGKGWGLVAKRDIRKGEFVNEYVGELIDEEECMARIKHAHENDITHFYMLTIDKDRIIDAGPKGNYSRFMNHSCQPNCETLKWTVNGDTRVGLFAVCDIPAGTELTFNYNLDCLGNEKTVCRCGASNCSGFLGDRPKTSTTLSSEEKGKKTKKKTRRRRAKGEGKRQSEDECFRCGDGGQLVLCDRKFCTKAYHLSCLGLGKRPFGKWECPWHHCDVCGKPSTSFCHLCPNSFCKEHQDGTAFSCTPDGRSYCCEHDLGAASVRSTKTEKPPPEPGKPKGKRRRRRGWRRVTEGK

Large T antigen = Large T antigen (Simian virus 40, UniProt P03070); assay type: functional, Betapolyomavirus macacae;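 also: Confirmatory-stage PubChem screen for compounds that inhibit SV40 T antigen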
Sequence of Large T antigen (P03070 whole entry): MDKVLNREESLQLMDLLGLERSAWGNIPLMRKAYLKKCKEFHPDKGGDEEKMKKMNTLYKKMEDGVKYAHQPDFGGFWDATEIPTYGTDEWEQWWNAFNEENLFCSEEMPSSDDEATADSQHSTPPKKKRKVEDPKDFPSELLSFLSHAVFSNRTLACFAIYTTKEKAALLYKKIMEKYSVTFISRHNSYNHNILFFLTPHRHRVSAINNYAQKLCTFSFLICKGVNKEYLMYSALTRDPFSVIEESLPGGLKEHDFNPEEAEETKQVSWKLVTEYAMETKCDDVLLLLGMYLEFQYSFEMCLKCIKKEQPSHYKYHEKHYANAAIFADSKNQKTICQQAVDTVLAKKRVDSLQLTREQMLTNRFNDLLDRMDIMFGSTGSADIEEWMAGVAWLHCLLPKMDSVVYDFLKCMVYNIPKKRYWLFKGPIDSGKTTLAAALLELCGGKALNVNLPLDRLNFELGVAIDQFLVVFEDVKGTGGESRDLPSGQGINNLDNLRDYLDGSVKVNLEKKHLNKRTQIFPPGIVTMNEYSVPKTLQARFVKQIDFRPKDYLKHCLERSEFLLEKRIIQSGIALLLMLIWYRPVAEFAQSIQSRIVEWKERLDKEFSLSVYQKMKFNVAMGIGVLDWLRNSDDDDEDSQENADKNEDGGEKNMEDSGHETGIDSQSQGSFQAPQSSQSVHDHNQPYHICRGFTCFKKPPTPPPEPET

cells [6] = assay type: functional, cell-based
cells [7] = assay type: functional, cell-based; remark: listed apart in the source
[8] = molecular target: T2, Trace amine-associated receptor 1 (Homo sapiens, UniProt Q96RJ0); test: Fluorescence-based cell-based high throughput dose response assay to identify agonists of the human trace amine associated receptor 1 (TAAR1).; assay type: functional
T2 sequence (Q96RJ0 whole entry): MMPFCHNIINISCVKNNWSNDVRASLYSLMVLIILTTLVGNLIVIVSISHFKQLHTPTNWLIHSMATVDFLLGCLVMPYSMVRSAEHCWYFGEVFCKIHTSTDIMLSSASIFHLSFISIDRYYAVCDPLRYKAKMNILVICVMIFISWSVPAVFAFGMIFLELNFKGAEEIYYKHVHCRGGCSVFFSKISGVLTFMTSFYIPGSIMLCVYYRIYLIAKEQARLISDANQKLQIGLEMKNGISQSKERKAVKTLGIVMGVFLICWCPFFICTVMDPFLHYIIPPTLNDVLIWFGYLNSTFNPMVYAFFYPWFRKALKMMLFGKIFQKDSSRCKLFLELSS

[9] = molecular target: T2, Trace amine-associated receptor 1; test: Counterscreen for agonists of the human trace amine associated receptor 1 (hTAAR1): Fluorescence-based cell-based high throughput dose response assay to identify hTAAR1 agonist that also desensitize TAAR1 receptor response.; assay type: functional

Compound: C[C@@H]1CN([C@@H](C)CO)C(=O)c2cccc(NC(=O)c3ccc(-c4nccs4)cc3)c2O[C@H]1CN(C)CC1CCCCC1
- AC50 [1]: 4.06 µM (active)

Compound: C[C@H]1CN([C@@H](C)CO)C(=O)Cc2cc(NC(=O)C3CC3)ccc2O[C@@H]1CN(C)Cc1ccc(C(F)(F)F)cc1
- AC50 [1]: 3.25 µM (active)

Compound: O=C(N/N=C/c1ccc(-c2cccc(Cl)c2)o1)c1ccccn1
- AC50 [1]: 0.15 µM (active)

Compound: Cc1noc(C)c1S(=O)(=O)Nc1ccc2c(c1)C(=O)N([C@H](C)CO)C[C@H](C)[C@@H](CN(C)Cc1ccc(C(=O)Nc3ccccc3N)cc1)O2
- AC50 [1]: 1.4 µM (active)

Compound: C[C@@H]1CCCCO[C@H](CN(C)Cc2ccc(Cl)c(Cl)c2)[C@@H](C)CN([C@H](C)CO)C(=O)c2cc(NC(=O)Nc3cccc4ccccc34)ccc2O1
- AC50 [1]: 3.72 µM (active)

Compound: COc1ccc(CN(C)C[C@@H]2OCCCC[C@H](C)Oc3ccc(NS(=O)(=O)c4ccc(C)cc4)cc3C(=O)N([C@H](C)CO)C[C@H]2C)cc1
- AC50 (Paired box protein Pax-8): 16.8 µM (active)
- AC50 [2]: 64.6 µM (active)
- AC50 [3]: 44.6 µM (active)

Compound: C[C@@H]1CCCCO[C@H](CN(C)Cc2ccccc2)[C@@H](C)CN([C@@H](C)CO)C(=O)c2cc(NC(=O)Nc3ccc(C(F)(F)F)cc3)ccc2O1
- AC50 (Paired box protein Pax-8): 19 µM (active)
- AC50 [4]: 44.5 µM (active)
- AC50 [3]: 33.6 µM (active)

Compound: C[C@@H]1CN([C@H](C)CO)S(=O)(=O)c2ccc(C#Cc3ccncc3)cc2O[C@H]1CN(C)C(=O)C1CCCCC1
- AC50 (Paired box protein Pax-8): 3.13 µM (active)
- AC50 [4]: 17.1 µM (active)

- EC50 (Kallikrein-7): > 69.6 µM (inactive)
Compound: CC(C)Nc1nc(-c2ccccc2CO)c2sccc2n1

- AC50 [5]: 8.78 µM (active)
- IC50 (Large T antigen): 11.7 µM (active)
Compound: O=c1c2ccccc2nc(COc2ccccc2)n1/N=C/c1ccc(O)c(O)c1

Compound: c1ccc(CCNc2ncnc3[nH]cnc23)cc1
- EC50 (cells [6]): > 29.9 µM (inactive)
- IC50 (cells [7]): > 29.9 µM (inactive)
- EC50 [8]: 3.94 µM (active)
- IC50 [9]: 8.92 µM (active)

Source: ChEMBL document CHEMBL1201862, “PubChem BioAssay data set” (2004)
